The record followed here is patent US20200405671A1, “METHODS AND MATERIALS FOR TREATING POLYCYSTIC KIDNEY DISEASE” (Mayo Foundation for Medical Education and Research, priority 2019, published 2020).

In data set [1] the test system is Pkd1^RC/RC mice. Briefly: Intrarenal microvasculature quantified using a capillary index. Conditions: 6 months of age. The data set is classed as in vivo. On the procedure: (§1) One month old Pkd1^RC/RC mice were divided into three groups and started treatment with regular water or regular water supplemented with 1% or 2% betaine (FIG. 2) for 5 months (n=16 per group). All mice were euthanized at 6 months of age, and kidneys harvested. Cystic index was determined from histological sections. 1H-NMR-based metabolomics analysis was performed from tissue urine and plasma samples.
Intrarenal microvasculature was quantified using a capillary index. Capillaries in the cortex were identified by the presence of lumen, red blood cells, and/or an endothelial cell lining. For the PKD animals, the number of capillaries is calculated adjusting for the cystic area.

Data set [2] can be described thus: 1H-NMR-based analysis of plasma and tissue betaine concentration after betaine supplementation. The data set is classed as in vivo. The following applies: Pkd1^RC/RC mice, vs no betaine, p<0.001; for tissue betaine concentration: kidney tissue. On the procedure: as §1
Data set [3] in a line: 1HNMR spectroscopy of stability of betaine in water. The data set is classed as physicochemical. The following applies: 1% and 2% betaine in water, day 0, day 2 and day 8 (course of one week). The source says:
FIG. 2: ^1HNMR spectroscopy depicting stability of betaine in water during the course of 1 week. Three spectral lines on top indicating 2% betaine represent betaine concentration as determined by ^1HNMR spectroscopy at day 0, day, 2 and day 8. Below, three spectral lines indicating 1% betaine represent betaine concentration as determined by ^1HNMR spectroscopy at day 0, day, 2 and day 8. At the bottom, flat spectra can be seen for the animals receiving control water without betaine, indicated as control day 2 and 8. Overall, betaine was stable and non-significant changes in betaine concentration were observed during the course of one week.

Data set [4] has as its system Pkd1^RC/RC mice. Put plainly: Betaine supplementation in drinking water in Pkd1^RC/RC mice: kidney/body weight and cystic index from histological sections. The following applies: p<0.01; for kidney/body weight: euthanized at 6 months of age, no betaine 2.25; for cystic index (percentage of cyst area within the total kidney section): no betaine 21.1%. Type of data set: in vivo. On the procedure: as §1

Data set [5] concerns Pkd1^RC/RC mice. Put plainly: Blood pressure (MAP) by tail cuff, CODA non-invasive blood pressure system. Type of data set: in vivo. Conditions: compared with wild type (WT) animals. As to the method: as §1
Blood pressure was determined during the same time frame (9-11 am) in all animals in all groups, using the CODA non-invasive blood pressure system (Kent Scientific). Briefly, mice were guided into a plastic mouse holder and were left to acclimate to the holder for 5 minutes. Ten blood pressure (BP) measurements within 10 minutes were obtained by tail cuff.

The mark [6] stands for this setting: 1% betaine in drinking water for 5 months.
Where [7] appears, read: 2% betaine in drinking water for 5 months.

“Also recorded” adds a separate entry of the source.

With `C[N+](C)(C)CC(=O)[O-]` [betaine, trimethylglycine], the “capillary count (intrarenal microvasculature)” value in data set [1] (1% betaine, female animals) is recorded as “not effective”; in data set [1] (1% betaine, male animals), “preserved the capillary count”; in data set [1] (2% betaine, female animals) it was “preserved capillary count”; in data set [1] (2% betaine, male animals) it was “preserved the capillary count”. Also, the tissue betaine concentration entry in data set [2] (1% betaine in drinking water) and in data set [2] (2% betaine in drinking water) was “significant increases; also recorded: increased” throughout. Moreover, the plasma betaine concentration entry in data set [2] (1% betaine in drinking water) and in data set [2] (2% betaine in drinking water) was “increased” each time. Moreover, the “stability of betaine in water (betaine concentration)” value in data set [3] is on record as “stable”. Besides, the kidney/body weight is given as 1.82 in data set [4] (setting [6]) and 1.85 in data set [4] (setting [7]). In addition, the “cystic index (percentage of cyst area within the total kidney section)” value in data set [4] (setting [6]) is 11.1%; in data set [4] (setting [7]), 9.4%. The “Mean Arterial Pressure (MAP)” value in data set [5] (1% betaine) and in data set [5] (2% betaine) was “preserved MAP within WT levels” in each case.
